Source: US5395610A, “Agents for potentiating the effects of antitumor agents and combating multiple drug resistance” (Burroughs-Wellcome Co., priority 1989, dated 1995)
Structures can show the parent of a compound that is named as a salt.

Tests used:
in vitro = type: cell-based, Chinese hamster; settings: hamster, cho auxb1 cells
[1] = In vitro cytotoxicity / potentiation of Actinomycin D in Chinese hamster ovary cells, drug resistant C5S32 (MTT); type: cell-based; settings: hamster, cho c5s32 cells, fraction of untreated cultures (1.00), read-out: Cytotoxicity, normalized absorbance, Drug Resistant C5S32, 0 (no Act D); for viability at 96 h, 1 µM: 1 μM potentiating agent alone; for viability at 96 h, 10 µM: 10 μM potentiating agent alone
[2] = tested on: Chinese hamster ovary (CHO) cells, drug resistant C5S32; assay: as above; type: cell-based; settings: 96 h, fraction of Act D alone (1.00)
[3] = In vitro cytotoxicity / potentiation of Actinomycin D in human KB epidermoid carcinoma cells, wildtype KB 3-1 (MTT); type: cell-based; settings: human, kb 3-1 cells, fraction of untreated cultures, read-out: Cytotoxicity, normalized absorbance, Wildtype KB 3-1, 0 (no Act D); for viability at 96 h, 1 µM: 1 μM potentiating agent alone; for viability at 96 h, 10 µM: 10 μM potentiating agent alone
[4] = tested on: human KB epidermoid carcinoma cells, wildtype KB 3-1; assay: as above; type: cell-based; settings: 96 h, fraction of Act D alone
[5] = In vitro cytotoxicity / potentiation of Actinomycin D in human KB epidermoid carcinoma cells, drug resistant KB V-1 (MTT); type: cell-based; settings: human, kb v-1 cells, fraction of untreated cultures, read-out: Cytotoxicity, normalized absorbance, Drug Resistant KB V-1, 0 (no Act D); for viability at 96 h, 1 µM: 1 μM potentiating agent alone; for viability at 96 h, 10 µM: 10 μM potentiating agent alone
[6] = tested on: human KB epidermoid carcinoma cells, drug resistant KB V-1; assay: as above; type: cell-based; settings: 96 h, fraction of Act D alone
[7] = 1 μM potentiating agent + Act D 0.5 μM
[8] = 10 μM potentiating agent + Act D 0.5 μM
[9] = 1 μM potentiating agent + Act D 0.1 nM
[10] = 10 μM potentiating agent + Act D 0.1 nM
[11] = 1 μM potentiating agent + Act D 20 nM
[12] = 10 μM potentiating agent + Act D 20 nM

Brc1ccc2c(c1)/C(=C/CCN1CCCC1)c1cc(Br)ccc1OC2 [(O), (Z)-1-[3-(2,9-dibromo-6,11-dihydrodibenz [b,e]-oxepin-11-ylidene)propyl]pyrrolidine]
viability at 96 h, 1 µM (in vitro): 100%
viability at 96 h, 10 µM (in vitro): 93%
viability at 96 h, 1 µM [1]: 48%
viability at 96 h, 10 µM [1]: 35%
Synergism with Actinomycin D, normalized absorbance, Drug Resistant C5S32, +ACT D [2, 7]: 0.58
Synergism with Actinomycin D, normalized absorbance, Drug Resistant C5S32, +ACT D [2, 8]: 0.38
viability at 96 h, 1 µM [3]: 79%
viability at 96 h, 10 µM [3]: 64%
Synergism with Actinomycin D, normalized absorbance, Wildtype KB 3-1, +ACT D [4, 9]: 0.81
Synergism with Actinomycin D, normalized absorbance, Wildtype KB 3-1, +ACT D [4, 10]: 0.73
viability at 96 h, 1 µM [5]: 74%
viability at 96 h, 10 µM [5]: 7%
Synergism with Actinomycin D, normalized absorbance, Drug Resistant KB V-1, +ACT D [6, 11]: 0.78
Synergism with Actinomycin D, normalized absorbance, Drug Resistant KB V-1, +ACT D [6, 12]: 0.06

Brc1ccc2c(c1)/C(=C/CCN1CCCC1)c1ccccc1CO2 [(K), (E)-1-[3-(2-Bromo-6,11-dihydrodibenz [b,e]-oxepin-11-ylidene)propyl]pyrrolidine]
viability at 96 h, 1 µM (in vitro): 83%
viability at 96 h, 10 µM (in vitro): 87%
viability at 96 h, 1 µM [1]: 100%
viability at 96 h, 10 µM [1]: 100%
Synergism with Actinomycin D, normalized absorbance, Drug Resistant C5S32, +ACT D [2, 7]: 0.79
Synergism with Actinomycin D, normalized absorbance, Drug Resistant C5S32, +ACT D [2, 8]: 0.28
viability at 96 h, 1 µM [3]: 85%
viability at 96 h, 10 µM [3]: 100%
Synergism with Actinomycin D, normalized absorbance, Wildtype KB 3-1, +ACT D [4, 9]: 0.77
Synergism with Actinomycin D, normalized absorbance, Wildtype KB 3-1, +ACT D [4, 10]: 0.03
viability at 96 h, 1 µM [5]: 86%
viability at 96 h, 10 µM [5]: 8%
Synergism with Actinomycin D, normalized absorbance, Drug Resistant KB V-1, +ACT D [6, 11]: 0.88
Synergism with Actinomycin D, normalized absorbance, Drug Resistant KB V-1, +ACT D [6, 12]: 0.13

Brc1ccc2c(c1)/C(=C\CCN1CCCC1)c1ccccc1CO2 [(G), (Z)-1-[3-(2-Bromo-6,11-dihydrodibenz [b,e]-oxepin-11-ylidene)propyl]pyrrolidine]
viability at 96 h, 1 µM (in vitro): 100%
viability at 96 h, 10 µM (in vitro): 100%
viability at 96 h, 1 µM [1]: 54%
viability at 96 h, 10 µM [1]: 15%
Synergism with Actinomycin D, normalized absorbance, Drug Resistant C5S32, +ACT D [2, 7]: 0.47
Synergism with Actinomycin D, normalized absorbance, Drug Resistant C5S32, +ACT D [2, 8]: 0.10
viability at 96 h, 1 µM [3]: 87%
viability at 96 h, 10 µM [3]: 74%
Synergism with Actinomycin D, normalized absorbance, Wildtype KB 3-1, +ACT D [4, 9]: 0.80
Synergism with Actinomycin D, normalized absorbance, Wildtype KB 3-1, +ACT D [4, 10]: 0.87
viability at 96 h, 1 µM [5]: 86%
viability at 96 h, 10 µM [5]: 70%
Synergism with Actinomycin D, normalized absorbance, Drug Resistant KB V-1, +ACT D [6, 11]: 0.91
Synergism with Actinomycin D, normalized absorbance, Drug Resistant KB V-1, +ACT D [6, 12]: 0.35

CN(C)CC/C=C1\c2ccccc2COc2ccc(Br)cc21 [(B), (E)-3-(2-Bromo-6,11-dihydrodibenz [b,e]oxepin-11-ylidene)-N,N-dimethylpropylamine 3/2 hydrochloride]
viability at 96 h, 1 µM (in vitro): 98%
viability at 96 h, 10 µM (in vitro): 87%
viability at 96 h, 1 µM [1]: 83%
viability at 96 h, 10 µM [1]: 55%
Synergism with Actinomycin D, normalized absorbance, Drug Resistant C5S32, +ACT D [2, 7]: 0.82
Synergism with Actinomycin D, normalized absorbance, Drug Resistant C5S32, +ACT D [2, 8]: 0.37
viability at 96 h, 1 µM [3]: 100%
viability at 96 h, 10 µM [3]: 83%
Synergism with Actinomycin D, normalized absorbance, Wildtype KB 3-1, +ACT D [4, 10]: 0.91
viability at 96 h, 1 µM [5]: 100%
viability at 96 h, 10 µM [5]: 44%
Synergism with Actinomycin D, normalized absorbance, Drug Resistant KB V-1, +ACT D [6, 12]: 0.01

CN(C)CC/C=C1/c2ccccc2COc2c(Br)cccc21 [(D), (Z)-3-(4-Bromo-6,11-dihydrodibenz [b,e]oxepin-11-ylidene)-N,N-dimethylpropylamine]
viability at 96 h, 1 µM (in vitro): 100%
viability at 96 h, 10 µM (in vitro): 100%
viability at 96 h, 1 µM [1]: 89%
viability at 96 h, 10 µM [1]: 34%
Synergism with Actinomycin D, normalized absorbance, Drug Resistant C5S32, +ACT D [2, 7]: 0.71
Synergism with Actinomycin D, normalized absorbance, Drug Resistant C5S32, +ACT D [2, 8]: 0.31
viability at 96 h, 1 µM [3]: 88%
viability at 96 h, 10 µM [3]: 51%
Synergism with Actinomycin D, normalized absorbance, Wildtype KB 3-1, +ACT D [4, 9]: 0.86
Synergism with Actinomycin D, normalized absorbance, Wildtype KB 3-1, +ACT D [4, 10]: 0.65
viability at 96 h, 1 µM [5]: 75%
viability at 96 h, 10 µM [5]: 36%
Synergism with Actinomycin D, normalized absorbance, Drug Resistant KB V-1, +ACT D [6, 11]: 0.78
Synergism with Actinomycin D, normalized absorbance, Drug Resistant KB V-1, +ACT D [6, 12]: 0.01

CN(C)CC/C=C1/c2ccccc2COc2ccc(Br)cc21.Cl.Cl.Cl [(A), (Z)-3-(2-Bromo-6,11-dihydrodibenz [b,e]oxepin-11-ylidene)-N,N-dimethylpropylamine trihydrochloride]
viability at 96 h, 1 µM (in vitro): 100%
viability at 96 h, 10 µM (in vitro): 100%
viability at 96 h, 1 µM [1]: 85%
viability at 96 h, 10 µM [1]: 42%
Synergism with Actinomycin D, normalized absorbance, Drug Resistant C5S32, +ACT D [2, 7]: 0.71
Synergism with Actinomycin D, normalized absorbance, Drug Resistant C5S32, +ACT D [2, 8]: 0.22
viability at 96 h, 1 µM [3]: 99%
viability at 96 h, 10 µM [3]: 98%
Synergism with Actinomycin D, normalized absorbance, Wildtype KB 3-1, +ACT D [4, 9]: 0.88
Synergism with Actinomycin D, normalized absorbance, Wildtype KB 3-1, +ACT D [4, 10]: 1.00
viability at 96 h, 1 µM [5]: 100%
viability at 96 h, 10 µM [5]: 75%
Synergism with Actinomycin D, normalized absorbance, Drug Resistant KB V-1, +ACT D [6, 11]: 0.99
Synergism with Actinomycin D, normalized absorbance, Drug Resistant KB V-1, +ACT D [6, 12]: 0.21

CN(C)CCC=C1c2ccc(Br)cc2COc2ccccc21 [(L), (E)/(Z) -3-(8-Bromo-6,11-dihydrodibenz [b,e]-oxepine-11-ylidene)-N,N-dimethylpropylamine (80% Z:20% E)]
viability at 96 h, 1 µM (in vitro): 83%
viability at 96 h, 10 µM (in vitro): 81%
viability at 96 h, 1 µM [1]: 92%
viability at 96 h, 10 µM [1]: 99%
Synergism with Actinomycin D, normalized absorbance, Drug Resistant C5S32, +ACT D [2, 7]: 0.85
Synergism with Actinomycin D, normalized absorbance, Drug Resistant C5S32, +ACT D [2, 8]: 0.42
viability at 96 h, 1 µM [3]: 100%
viability at 96 h, 10 µM [3]: 97%
Synergism with Actinomycin D, normalized absorbance, Wildtype KB 3-1, +ACT D [4, 10]: 0.94
viability at 96 h, 1 µM [5]: 98%
viability at 96 h, 10 µM [5]: 51%
Synergism with Actinomycin D, normalized absorbance, Drug Resistant KB V-1, +ACT D [6, 11]: 1.00
Synergism with Actinomycin D, normalized absorbance, Drug Resistant KB V-1, +ACT D [6, 12]: 0.23

CN(C)CC/C=C1/c2ccccc2COc2ccc(F)cc21 [(Q), (Z)-3-(2-fluoro-6,11-dihydrodibenz [b,e]oxepin-11-ylidene)-N,N-dimethylpropylamine]
viability at 96 h, 1 µM (in vitro): 97%
viability at 96 h, 10 µM (in vitro): 93%
viability at 96 h, 1 µM [1]: 53%
viability at 96 h, 10 µM [1]: 33%
Synergism with Actinomycin D, normalized absorbance, Drug Resistant C5S32, +ACT D [2, 7]: 0.69
Synergism with Actinomycin D, normalized absorbance, Drug Resistant C5S32, +ACT D [2, 8]: 0.37
viability at 96 h, 1 µM [3]: 92%
viability at 96 h, 10 µM [3]: 77%
Synergism with Actinomycin D, normalized absorbance, Wildtype KB 3-1, +ACT D [4, 9]: 0.91
Synergism with Actinomycin D, normalized absorbance, Wildtype KB 3-1, +ACT D [4, 10]: 0.78
viability at 96 h, 1 µM [5]: 86%
viability at 96 h, 10 µM [5]: 80%
Synergism with Actinomycin D, normalized absorbance, Drug Resistant KB V-1, +ACT D [6, 11]: 0.83
Synergism with Actinomycin D, normalized absorbance, Drug Resistant KB V-1, +ACT D [6, 12]: 0.65

CN(C)CC/C=C1\c2ccccc2COc2ccc(F)cc21 [(P), (E)-3-(2-fluoro-6,11-dihydrodibenz [b,e]oxepin-11-ylidine)-N,N-dimethylpropylamine]
viability at 96 h, 1 µM (in vitro): 100%
viability at 96 h, 10 µM (in vitro): 100%
viability at 96 h, 1 µM [1]: 61%
viability at 96 h, 10 µM [1]: 31%
Synergism with Actinomycin D, normalized absorbance, Drug Resistant C5S32, +ACT D [2, 7]: 0.70
Synergism with Actinomycin D, normalized absorbance, Drug Resistant C5S32, +ACT D [2, 8]: 0.38
viability at 96 h, 1 µM [3]: 65%
viability at 96 h, 10 µM [3]: 65%
Synergism with Actinomycin D, normalized absorbance, Wildtype KB 3-1, +ACT D [4, 9]: 0.72
Synergism with Actinomycin D, normalized absorbance, Wildtype KB 3-1, +ACT D [4, 10]: 0.71
viability at 96 h, 1 µM [5]: 73%
viability at 96 h, 10 µM [5]: 52%
Synergism with Actinomycin D, normalized absorbance, Drug Resistant KB V-1, +ACT D [6, 11]: 0.72
Synergism with Actinomycin D, normalized absorbance, Drug Resistant KB V-1, +ACT D [6, 12]: 0.58

CCN(CC)CC/C=C1/c2ccccc2COc2ccc(Br)cc21 [(I), (Z)-3-(2-Bromo-6,11-dihydrodibenz [b,e]oxepin-11-ylidene)-N,N-diethylpropylamine]
viability at 96 h, 1 µM (in vitro): 90%
viability at 96 h, 10 µM (in vitro): 92%
viability at 96 h, 1 µM [1]: 95%
viability at 96 h, 10 µM [1]: 100%
Synergism with Actinomycin D, normalized absorbance, Drug Resistant C5S32, +ACT D [2, 7]: 0.77
Synergism with Actinomycin D, normalized absorbance, Drug Resistant C5S32, +ACT D [2, 8]: 0.36
viability at 96 h, 1 µM [3]: 99%
viability at 96 h, 10 µM [3]: 30%
Synergism with Actinomycin D, normalized absorbance, Wildtype KB 3-1, +ACT D [4, 9]: 0.99
Synergism with Actinomycin D, normalized absorbance, Wildtype KB 3-1, +ACT D [4, 10]: 0.40
viability at 96 h, 1 µM [5]: 98%
viability at 96 h, 10 µM [5]: 34%
Synergism with Actinomycin D, normalized absorbance, Drug Resistant KB V-1, +ACT D [6, 11]: 0.95
Synergism with Actinomycin D, normalized absorbance, Drug Resistant KB V-1, +ACT D [6, 12]: 0.04
